{
  "source": "ChEMBL document CHEMBL1128818",
  "about": "“Synthesis and antiplatelet activity of DMP 757 analogs” (Bioorg Med Chem Lett, 1995)",
  "target": "Integrin alpha-IIb/beta-3 (Homo sapiens, UniProt P05106+P08514)",
  "sequence (P05106 27-788 limits assumed)": "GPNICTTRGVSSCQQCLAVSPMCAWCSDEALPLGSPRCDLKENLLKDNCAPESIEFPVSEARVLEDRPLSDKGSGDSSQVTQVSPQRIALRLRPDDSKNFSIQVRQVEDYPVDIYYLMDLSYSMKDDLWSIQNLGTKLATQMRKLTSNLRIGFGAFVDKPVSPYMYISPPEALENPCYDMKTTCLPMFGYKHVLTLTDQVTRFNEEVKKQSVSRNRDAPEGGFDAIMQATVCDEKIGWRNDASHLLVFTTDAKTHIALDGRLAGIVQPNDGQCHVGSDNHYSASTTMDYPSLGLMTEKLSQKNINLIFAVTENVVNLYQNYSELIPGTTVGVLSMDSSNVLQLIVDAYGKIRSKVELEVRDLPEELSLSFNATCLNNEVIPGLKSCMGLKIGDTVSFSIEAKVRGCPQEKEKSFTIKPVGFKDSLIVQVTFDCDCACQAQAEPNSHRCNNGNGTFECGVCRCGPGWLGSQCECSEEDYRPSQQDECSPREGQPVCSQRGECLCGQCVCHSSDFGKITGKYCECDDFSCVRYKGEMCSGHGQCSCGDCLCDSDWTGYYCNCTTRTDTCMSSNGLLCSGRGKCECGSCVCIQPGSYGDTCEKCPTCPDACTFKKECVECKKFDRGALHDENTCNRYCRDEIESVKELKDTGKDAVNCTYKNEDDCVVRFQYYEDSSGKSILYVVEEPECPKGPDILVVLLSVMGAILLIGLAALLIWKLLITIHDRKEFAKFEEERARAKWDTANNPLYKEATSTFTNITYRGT",
  "sequence (P08514 32-887 limits assumed)": "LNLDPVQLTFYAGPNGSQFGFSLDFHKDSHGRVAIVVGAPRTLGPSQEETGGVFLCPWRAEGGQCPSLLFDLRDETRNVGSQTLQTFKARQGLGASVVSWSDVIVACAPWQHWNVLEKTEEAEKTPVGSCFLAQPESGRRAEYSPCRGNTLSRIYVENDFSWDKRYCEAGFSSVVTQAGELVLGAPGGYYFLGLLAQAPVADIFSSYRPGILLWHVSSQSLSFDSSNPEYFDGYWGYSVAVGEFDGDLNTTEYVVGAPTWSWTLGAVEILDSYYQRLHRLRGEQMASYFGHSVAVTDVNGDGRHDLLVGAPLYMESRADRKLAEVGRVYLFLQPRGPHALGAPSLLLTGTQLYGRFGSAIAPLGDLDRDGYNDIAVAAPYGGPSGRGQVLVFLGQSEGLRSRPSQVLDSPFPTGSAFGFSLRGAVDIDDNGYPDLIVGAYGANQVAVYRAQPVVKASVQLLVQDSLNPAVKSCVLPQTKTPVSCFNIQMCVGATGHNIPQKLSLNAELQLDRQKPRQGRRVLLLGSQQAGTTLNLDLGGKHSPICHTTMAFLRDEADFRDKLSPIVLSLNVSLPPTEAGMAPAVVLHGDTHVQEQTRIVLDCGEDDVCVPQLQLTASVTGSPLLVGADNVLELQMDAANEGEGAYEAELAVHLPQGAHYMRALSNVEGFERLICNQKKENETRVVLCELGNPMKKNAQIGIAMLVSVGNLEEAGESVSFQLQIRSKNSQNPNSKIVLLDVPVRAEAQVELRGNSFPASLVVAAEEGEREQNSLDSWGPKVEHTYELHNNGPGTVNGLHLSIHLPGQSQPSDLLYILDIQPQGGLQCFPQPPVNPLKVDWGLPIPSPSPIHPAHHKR",
  "sequence (P08514 891-1039 limits assumed)": "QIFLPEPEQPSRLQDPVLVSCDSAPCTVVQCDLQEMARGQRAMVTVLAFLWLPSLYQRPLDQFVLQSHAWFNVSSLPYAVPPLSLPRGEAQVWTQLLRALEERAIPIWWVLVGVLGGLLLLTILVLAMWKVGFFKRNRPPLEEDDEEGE",
  "test": "Inhibition of platelet aggregation in vitro using fibrinogen binding assay",
  "note": "pIC50: −log10 of the molar value.",
  "data": [
    {"smiles": "CC(C)[C@H]1NC(=O)c2cccc(c2F)CNC(=O)[C@H](CC(=O)O)NC(=O)CNC(=O)[C@H](CCCN=C(N)N)N(C)C1=O", "values": [
      {"measurement": "pIC50", "value": 8.40}
    ]}
  ]
}
